In ChEMBL document CHEMBL1201862, “PubChem BioAssay data set” (2004):
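All cell lines were grown in 96-well plates and treated with compound for 48 hours. GI50 = concentration required for 50% inhibition of growth.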 Active and inactive are the calls of the source. Cut-off read from the data, not from the text of the source: active = GI50 up to about 1.1 µM and inactive = higher.

How the values were obtained:
Test in all cases: inhibition of tumour cell growth, NCI panel, 48 h
[1] = system: CAKI-1
[2] = system: HL-60
[3] = system: IGROV-1
[4] = system: NCI-H23
[5] = system: NCI-H460
[6] = system: NCI/ADR-RES
[7] = system: OVCAR-3
[8] = system: OVCAR-4
[9] = system: RPMI-8226
[10] = system: SF-268
[11] = system: SK-MEL-28
[12] = system: SK-MEL-2
[13] = system: SNB-19
[14] = system: SNB-75
[15] = system: SR
[16] = system: HCC 2998
[17] = system: HCT-116
[18] = system: LOX IMVI
[19] = system: RXF 393
[20] = system: 786-0

SMILES | GI50 [1] | GI50 [2] | GI50 [3] | GI50 [4] | GI50 [5] | GI50 [6] | GI50 [7] | GI50 [8] | GI50 [9] | GI50 [10] | GI50 [11] | GI50 [12] | GI50 [13] | GI50 [14] | GI50 [15] | GI50 [16] | GI50 [17] | GI50 [18] | GI50 [19] | GI50 [20]
O=C1CCC[C@H]2O[C@@H](COC(=O)c3ccccc3)C[C@H]2O1 | > 100 µM (inactive) | > 100 µM (inactive) | > 100 µM (inactive) | > 100 µM (inactive) | > 100 µM (inactive) | > 100 µM (inactive) | > 100 µM (inactive) | > 100 µM (inactive) | > 100 µM (inactive) | > 100 µM (inactive) | > 100 µM (inactive) | > 100 µM (inactive) | > 100 µM (inactive) | > 100 µM (inactive) | > 100 µM (inactive) | – | – | – | – | –
CN(C)C(=O)N(CCCl)N=O | > 100 µM (inactive) | > 100 µM (inactive) | > 100 µM (inactive) | > 100 µM (inactive) | > 100 µM (inactive) | > 100 µM (inactive) | > 100 µM (inactive) | > 100 µM (inactive) | > 100 µM (inactive) | > 100 µM (inactive) | > 100 µM (inactive) | > 100 µM (inactive) | > 100 µM (inactive) | > 63.7 µM (inactive) | – | > 100 µM (inactive) | > 100 µM (inactive) | > 100 µM (inactive) | > 100 µM (inactive) | –
CCCCc1nccc2c(C)c3[nH]c4ccccc4c3cc12 | 2.59 µM (inactive) | 1.83 µM (inactive) | 3.33 µM (inactive) | 3.66 µM (inactive) | 2.17 µM (inactive) | 1.71 µM (inactive) | 2.79 µM (inactive) | 3.91 µM (inactive) | 2 µM (inactive) | 5.87 µM (inactive) | 4.26 µM (inactive) | 3.88 µM (inactive) | 5 µM (inactive) | 5.93 µM (inactive) | – | 3.44 µM (inactive) | 1.77 µM (inactive) | 1.5 µM (inactive) | 2.22 µM (inactive) | –
C=C(C[C@@H](O)[C@H](C)NC(=O)OCc1ccccc1)C(=O)OC(C)(C)C | 53.6 µM (inactive) | 26.3 µM (inactive) | > 100 µM (inactive) | 45.6 µM (inactive) | > 100 µM (inactive) | 66.2 µM (inactive) | 78.2 µM (inactive) | 47.5 µM (inactive) | 29.8 µM (inactive) | > 100 µM (inactive) | > 100 µM (inactive) | > 100 µM (inactive) | > 100 µM (inactive) | 79.8 µM (inactive) | 29.6 µM (inactive) | > 100 µM (inactive) | > 100 µM (inactive) | 53.8 µM (inactive) | – | –
N#C/C(=C/C=C/c1ccco1)C(N)=O | > 10 µM (inactive) | – | > 10 µM (inactive) | – | > 10 µM (inactive) | > 10 µM (inactive) | > 10 µM (inactive) | – | – | > 10 µM (inactive) | > 10 µM (inactive) | > 10 µM (inactive) | – | > 10 µM (inactive) | – | > 10 µM (inactive) | – | > 10 µM (inactive) | > 10 µM (inactive) | > 10 µM (inactive)
Cc1ccc(S(=O)(=O)Oc2cc(-c3ccccc3)nc3ccccc23)cc1 | – | 1.03 µM (active) | 3.85 µM (inactive) | 2.53 µM (inactive) | 1.81 µM (inactive) | 1.95 µM (inactive) | 2.12 µM (inactive) | 7.33 µM (inactive) | 2.61 µM (inactive) | 8.77 µM (inactive) | 11.3 µM (inactive) | 1.98 µM (inactive) | 0.419 µM (active) | 1.92 µM (inactive) | – | 1 µM (active) | 2.36 µM (inactive) | 8.97 µM (inactive) | 2.95 µM (inactive) | –
Cc1ccc(OCC2OC(n3cnc4c(N(C)C)nc(Br)nc43)CC2Oc2ccc(C)cc2)cc1 (stereo unspecified) | > 100 µM (inactive) | > 100 µM (inactive) | > 100 µM (inactive) | > 100 µM (inactive) | > 100 µM (inactive) | > 100 µM (inactive) | > 100 µM (inactive) | > 100 µM (inactive) | 58.2 µM (inactive) | > 100 µM (inactive) | > 100 µM (inactive) | > 100 µM (inactive) | > 100 µM (inactive) | – | – | > 100 µM (inactive) | > 100 µM (inactive) | > 100 µM (inactive) | – | > 100 µM (inactive)
NC1c2c(Br)sc(N3CCCC3)c2C(=O)C1O (stereo unspecified) | > 50 µM (inactive) | > 50 µM (inactive) | > 50 µM (inactive) | > 50 µM (inactive) | > 50 µM (inactive) | > 50 µM (inactive) | > 50 µM (inactive) | > 50 µM (inactive) | – | > 50 µM (inactive) | – | > 50 µM (inactive) | > 50 µM (inactive) | > 50 µM (inactive) | – | 36.6 µM (inactive) | > 50 µM (inactive) | > 50 µM (inactive) | – | > 50 µM (inactive)
CSc1nc(=O)n(CCC#N)nc1SC | > 100 µM (inactive) | 4.19 µM (inactive) | > 100 µM (inactive) | 55.3 µM (inactive) | > 100 µM (inactive) | > 100 µM (inactive) | 16.1 µM (inactive) | – | 22.8 µM (inactive) | 27.9 µM (inactive) | 14 µM (inactive) | 14.5 µM (inactive) | > 100 µM (inactive) | 51.5 µM (inactive) | 32.8 µM (inactive) | 15 µM (inactive) | 16.5 µM (inactive) | 19.5 µM (inactive) | – | 25.3 µM (inactive)
O=C(CSCC(=O)N/N=C/c1ccncc1)N/N=C/c1ccncc1 | > 100 µM (inactive) | > 100 µM (inactive) | > 100 µM (inactive) | > 100 µM (inactive) | > 100 µM (inactive) | > 100 µM (inactive) | > 100 µM (inactive) | > 100 µM (inactive) | > 100 µM (inactive) | > 100 µM (inactive) | > 100 µM (inactive) | > 100 µM (inactive) | > 100 µM (inactive) | > 100 µM (inactive) | – | > 100 µM (inactive) | > 100 µM (inactive) | > 100 µM (inactive) | > 100 µM (inactive) | > 100 µM (inactive)
O=C(NCCN(CCNC(=O)c1cccc(=O)n1O)CCN(CCNC(=O)c1cccc(=O)n1O)CCNC(=O)c1cccc(=O)n1O)c1cccc(=O)n1O | > 100 µM (inactive) | 44.2 µM (inactive) | > 100 µM (inactive) | > 100 µM (inactive) | > 100 µM (inactive) | > 100 µM (inactive) | > 100 µM (inactive) | > 100 µM (inactive) | > 100 µM (inactive) | > 100 µM (inactive) | > 100 µM (inactive) | > 100 µM (inactive) | > 100 µM (inactive) | > 100 µM (inactive) | – | > 100 µM (inactive) | > 100 µM (inactive) | > 100 µM (inactive) | > 100 µM (inactive) | > 100 µM (inactive)
O=S1(=O)C(=C(c2ccccc2)c2ccccc2)S(=O)(=O)c2ccccc21 | > 87.5 µM (inactive) | > 100 µM (inactive) | > 95.5 µM (inactive) | > 63.2 µM (inactive) | > 100 µM (inactive) | > 100 µM (inactive) | > 57.9 µM (inactive) | 83.6 µM (inactive) | > 100 µM (inactive) | > 72.6 µM (inactive) | > 100 µM (inactive) | > 100 µM (inactive) | > 58.1 µM (inactive) | 20.2 µM (inactive) | – | 97.1 µM (inactive) | > 100 µM (inactive) | > 100 µM (inactive) | 34.1 µM (inactive) | –
COc1ccc2c(c1)CCc1c(CO)c(COC(=O)NC(C)C)n(C)c1-2 | 5.81 µM (inactive) | 1.59 µM (inactive) | 5.68 µM (inactive) | 2.97 µM (inactive) | 5.56 µM (inactive) | 16.1 µM (inactive) | 8.51 µM (inactive) | 4.34 µM (inactive) | 2.24 µM (inactive) | 6.49 µM (inactive) | 5.02 µM (inactive) | 11.2 µM (inactive) | 6.87 µM (inactive) | 4.82 µM (inactive) | – | 8.85 µM (inactive) | 2.91 µM (inactive) | 4.91 µM (inactive) | 7.55 µM (inactive) | 4.41 µM (inactive)
Nc1cc(CO)cc(Nc2nc3ccc(Cl)cc3c3[nH]c4ccccc4c23)c1 | 2.69 µM (inactive) | 21.7 µM (inactive) | 1.54 µM (inactive) | 6.28 µM (inactive) | 2.2 µM (inactive) | 8.45 µM (inactive) | – | – | 2.96 µM (inactive) | 2.86 µM (inactive) | – | 4.27 µM (inactive) | 4.32 µM (inactive) | – | 2.16 µM (inactive) | – | 3.34 µM (inactive) | – | – | 1.98 µM (inactive)
Cc1cccc(N(CCC#N)S(=O)(=O)c2ccccc2)c1 | > 100 µM (inactive) | > 100 µM (inactive) | > 100 µM (inactive) | > 100 µM (inactive) | > 100 µM (inactive) | > 100 µM (inactive) | > 100 µM (inactive) | > 100 µM (inactive) | > 100 µM (inactive) | > 100 µM (inactive) | > 100 µM (inactive) | > 100 µM (inactive) | > 100 µM (inactive) | > 100 µM (inactive) | > 100 µM (inactive) | > 100 µM (inactive) | > 100 µM (inactive) | > 100 µM (inactive) | – | > 100 µM (inactive)
CNc1ccc2ncccc2c1[N+](=O)[O-] | > 100 µM (inactive) | > 100 µM (inactive) | > 100 µM (inactive) | > 100 µM (inactive) | > 100 µM (inactive) | – | > 100 µM (inactive) | > 100 µM (inactive) | > 100 µM (inactive) | > 100 µM (inactive) | > 100 µM (inactive) | > 100 µM (inactive) | > 100 µM (inactive) | > 100 µM (inactive) | > 100 µM (inactive) | > 100 µM (inactive) | > 100 µM (inactive) | > 100 µM (inactive) | > 100 µM (inactive) | > 100 µM (inactive)
